Reference: patent US20100285583A1, “COMPOUNDS AND METHODS FOR INHIBITING PLATELET AGGREGATION” (priority 2009, published 2010)

Columns and labels:
N-PTB domain = biological target: T1, N-PTB domain (Homo sapiens, UniProt P98082, A82R); experiment: Protein-lipid overlay competition assay; type: binding; conditions: pre-incubation with 10-fold excess of lipid
T1 construct: The N-PTB domain (residues 1-241) cDNA construct was cloned into a pGEX6P1 vector; made in house; host or cells: E. coli Rosetta
T1 sequence (P98082 1-241 A82R): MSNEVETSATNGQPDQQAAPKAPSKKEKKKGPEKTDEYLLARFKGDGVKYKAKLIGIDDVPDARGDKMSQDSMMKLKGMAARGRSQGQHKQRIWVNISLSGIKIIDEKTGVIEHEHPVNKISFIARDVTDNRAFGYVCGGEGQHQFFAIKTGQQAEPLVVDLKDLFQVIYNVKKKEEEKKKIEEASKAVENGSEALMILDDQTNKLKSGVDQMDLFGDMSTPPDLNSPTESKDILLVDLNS
Protocol: Membrane strips (SphingoStrips™) spotted with 100 pmol of sphingolipids were purchased from Echelon Research Laboratories. Membrane strips were incubated with 0.1 μg/ml of the Dab2 PTB domain or its mutants in 20 mM Tris-HCl (pH 8.0), 150 mM NaCl, 0.1% Tween-20 and 3% fatty acid-free bovine serum albumin overnight at 4° C. Following four washes with the same buffer, proteins bound to the membrane strips were probed with rabbit anti-GST antibody (Santa Cruz Biotech). Donkey anti rabbit-horse radish peroxidase (HRP) antibody was obtained from GE Healthcare. Detection was carried out using ECL reagent (Pierce). Also, lipid strips were prepared by spotting 1 μl of either sulfatides or PtdIns(4,5)P2 dissolved in chloroform:methanol:water (1:2:0.8 and 65:35:8, respectively) onto Hybond-C extra membranes (GE Healthcare) and protein binding was monitored as described above. Bound protein was quantified using the AlphaImager program and binding was calculated as a percentage of GST-PTB binding to 100 pmoles of spotted lipid.
We next asked whether sulfatides and PtdIns(4,5)P2 compete with each other for binding to the N-PTB domain using a protein-lipid overlay competition assay. […] This observation was further confirmed by competing sulfatides and PtdIns(4,5)P2 for N-PTB domain binding using SPR. […]

[1] = system: T2, Dab2 N-terminal phosphotyrosine binding domain (N-PTB, residues 1-241 of human Disabled-2), wild type
T2 sequence: T1 sequence (P98082 1-241 A82R)

Human washed platelets = experiment: Platelet immunofluorescence analysis (subcellular localization); type: cell-based; conditions: activated platelets in presence of inhibitor
Protocol: Washed platelets (50 μl of […] in Tyrode's albumin buffer) were incubated with 1.9 μM of PTB domain constructs for 5 min at room temperature in the presence of 0.25 g/L fibrinogen. Aggregation was initiated by the addition of 10 μM TRAP. Reactions were incubated at room temperature unless otherwise indicated. Platelets were fixed with 0.4 mL of 3.7% formaldehyde in Phosphate Buffered Saline (PBS) for 30 min. Next, 20% goat serum was added to the fixed platelets, and 60% of the total fixed reaction was centrifuged using a Shandon cytospinner onto a Shandon coated cytoslide to achieve the appropriate platelet density for analysis. Slides were then washed twice with PBS for 10 min. Platelets were permeabilized with 0.5% Triton X-100 in PBS for 10 min and then blocked with 20% goat serum in PBS with 0.1% Triton X-100 for 1 h at room temperature. Platelets were washed 3 times with PBS with 0.1% Triton for 10 minutes and further incubated overnight with the anti-Dab2 antibody 1:100 (anti-p96; BD Transduction) in PBS with 0.1% Triton X-100 and 10% goat serum at 4° C. in a humidity chamber. Platelets were then washed and incubated with the anti-mouse Cy-3 conjugated goat antibody 1:250 and Alexa488 conjugated phalloidin (25 μg/mL) in PBS with 0.1% Triton X-100 and 10% goat serum for 2 h. Platelets were washed again and observed on an Olympus IX71 microscope using the Softworx Applied Precision software.
Mean pixel intensity was determined for 400 platelets from four fields each for 3 min and 10 min of treatments by manually drawing circles around individual platelets using the 2D Polygon tool in the Softworx software. For each time point, a threshold of significant mean pixel intensity was defined for the experiment. The percentage of countable platelets to exceed the threshold was calculated for each field and the average of four fields was computed with standard deviation. The ratio of internalization:binding is the quotient of these averages for a treatment.

phosphatidylinositol 4,5-bisphosphate [PtdIns(4,5)P2]
reduction of sulfatide binding of N-PTB domain (N-PTB domain): at least 60%

thrombin
thrombin proteolysis of the N-PTB domain (FIG. 3B) [1]: thrombin cleaved the N-PTB domain leaving a ˜25 kW protease-resistant product

CCCCCCCCCCCCCCCC(=O)OC[C@H](COP(=O)(O)O[C@@H]1[C@H](O)[C@H](OP(=O)(O)O)[C@@H](O)[C@H](O)[C@H]1O)OC(=O)CCCCCCCCCCCCCCC [PtdIns(3)P, phosphatidylinositol 3-phosphate]
competition with sulfatide for PTB binding (N-PTB domain): did not compete

CN(C)CCCN1c2ccccc2Sc2ccc(Cl)cc21 [chlorpromazine, reference compound]
effect on N-PTB domain internalization (Human washed platelets): inhibited

C=C1[C@@H](C)[C@H]2[C@H](Cc3ccccc3)NC(=O)[C@]23[C@H](OC(C)=O)/C=C/[C@@](C)(O)C(=O)[C@@H](C)C/C=C/[C@H]3[C@@H]1O [cytochalasin D, reference compound]
effect on N-PTB domain internalization (Human washed platelets): completely blocked N-PTB domain internalization
